From patent US5360803A, “Composition and method for treating cancer” (Dan Farber Cancer Institute, priority 1992, dated 1994)

Experiments:
CV-1 cells = test: selective killing assay, colony number reduced to 50% of control, normal monkey kidney epithelial cell line CV-1; format: cell-based; conditions: Primates, 24 hours treatment
From the text: (§1) The control received culture media only.

normal nude mice = test: toxicity to normal nude mice
CX-1 cells = test: selective killing assay, colony number reduced to 50% of control, human colon carcinoma cell line CX-1; format: cell-based; conditions: for Selectivity (ratio of IC50 for CV-1 and IC50 for CX-1): CV-1/CX-1; for IC50: Homo sapiens, CX-1, Table III;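 on all read-outs here: colonies stained with crystal violet and counted, control cells given medium alone, exposure at 37 °C, normal monkey kidney epithelial CV-1 cells as the non-cancer comparator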
[1] = test system: human colon carcinoma CX-1; test: anti-human colon carcinoma CX-1 activity using nude mice; format: in vivo, Swiss nu/nu mice (human tumor); conditions: Mus musculus, ip, 24 h, 5 mg/kg i.p. on day 1, 5, 8, 12, 15, 19; read-out: Tumor Inhibition
From the text: Human colon carcinoma cell line CX-1 has been chosen by the National Cancer Institute as a mode for cancer drug screening (NCI Protocol 3C2H2). It was established in culture from the surgical explant of the primary colon adenocarcinoma of a person with no previous chemotherapy. The cultured CX-1 cells, upon subcutaneous injection, can grow readily in nude mice as a moderately- to well-differentiated human colon carcinoma. CEA is expressed as expected for differentiated colon carcinoma cells. Abundant keratin, consistent with epithelial origin, is present. Increased uptake and prolonged retention of delocalized lipophilic cations are observed.
Swiss nu/nu mice obtained from Taconic Farm were housed in a pathogen-free environment. Tumors subcutaneously passaged in nude mice were excised under sterile conditions and converted to a single cell suspension using a metal grid with a 0.4 mm mesh. Red blood cells were lysed by incubation with 0.17M ammonium chloride at 4° C. for 20 minutes. Cells were scored for viability with trypan blue. Viable CX-1 cells (2.5 million) made up in 0.1 ml of […]. The mice were randomly allocated into a control group (five mice) and a treatment group (five mice per group). The drug treatment was commenced the next day. Doses and schedules were developed empirically and were based mainly on information on LD50 and LD1O obtained from preliminary toxicity studies. The control group received an equivalent volume of hydroxypropyl-β-cyclodextrin-5% glucose solution.
The pharmaceutical compositions tested comprised solutions in 5% glucose subjected to sonication at concentrations of 1 mg/ml. Those compounds which were not completely dissolved by this procedure were dissolved hydroxypropyl-β-cyclodextrin using the following method. Hydroxypropyl-β-cyclodextrin (45 g) was mixed with 100 ml of sterilized, double distilled water and stirred for four hours. Each of the compounds to be tested (20 mg) was mixed with 10 ml of hydroxypropyl-β-cyclodextrin solution and sonicated for 60 minutes in the dark. This solution was then diluted in 5% glucose to yield a final compound concentration of 0.5 mg/ml, and further sonicated for 60 minutes in the dark to assure that the compound was completely dissolved.
When the growth of tumors in the control group reached the exponential phase and the size of the tumor was palpable (usually 20 to 30 days after tumor implantation), the experiments were terminated. Tumors in each mouse were excised and weighed using an analytical balance. Total tumor weight in each group from five mice was calculated. Per cent tumor inhibition between the treated group and the control group was then calculated for each group.

CRL 1420 cells = test: colony assay of Example 1 with human pancreatic carcinoma CRL 1420 cell line; format: cell-based;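 further: colony formation assay, cells exposed for 24 h then regrown 7 to 10 days without compound, colonies stained with crystal violet, control given medium alone, normal reference CV-1 monkey kidney epithelial cells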
Method: (§2) Human colon carcinoma cell line CX-1 or normal monkey kidney epithelial cell line CV-1 was chosen as representatives of cancer cells and normal cells, respectively. […] CX-1 cells (2,000 cells/well) and CV-1 cells (1,000 cells/well) were plated in 24-well plastic culture plates. […] The control received culture media only. Cells were treated with compounds of General Formulas (I) to (V) at 37° C. for 24 hours. After rinsing with fresh culture medium three times, the cells were further incubated at 37° C. for 7 to 10 days. Cell colonies were fixed and stained with 2% crystal violet in 70% ethanol for 10 minutes and rinsed in water. […] The selectivity is defined as the ratio of IC50 for CV-1 and IC50 for CX-1.

LOX cells = test: colony assay of Example 1 with human melanoma LOX cell line; format: cell-based;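 further: colony formation assay with 24 h exposure at 37 °C, then 7 to 10 days of regrowth, crystal violet staining of colonies, control wells given medium alone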
MCF-7 cells = test: colony assay of Example 1 with human breast carcinoma MCF-7 cell line; format: cell-based
From the text: as §1

EJ cells = test: colony assay of Example 1 with human bladder carcinoma EJ cell line; format: cell-based;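 further: colony formation assay with 24 h compound exposure at 37 °C, then 7–10 days drug-free regrowth, colonies stained with crystal violet, controls given medium alone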
Method: as §2

human melanoma LOX = test: survival of nude mice implanted with human melanoma LOX; format: in vivo, male athymic Swiss nu/nu mouse (human tumor); conditions: Mus musculus, ip, 24 h, 5 mg/kg i.p. on day 1, 4, 8, 11; read-out: T/C
[2] = CV-1, Table III, normal monkey kidney epithelial cells, colony count after 7 to 10 days
[3] = human colon carcinoma, 24 hours treatment, colony count after 7 to 10 days

Row | SMILES | IC50 (CV-1 cells; [2]) [µg/mL] | toxicity to normal nude mice (normal nude mice) | Selectivity (ratio of IC50 for CV-1 and IC50 for CX-1) (CX-1 cells) | IC50 (CX-1 cells; [3]) [µg/mL] | further results
1 | CCN1C(=CC=CC=Cc2sc3ccccc3[n+]2CC)Oc2ccccc21 [F, reference compound] | 1.5 | less toxic to normal nude mice | 50 | 0.03 | 
2 | CCN1C(=CC(C)=Cc2sc3c4ccccc4ccc3[n+]2CC)Sc2c1ccc1ccccc21 [G, reference compound] | 0.1 | highly toxic to normal nude mice | 5 | 0.02 | 
3 | CCN1C(=CC=Cc2sc3c4ccccc4ccc3[n+]2CC)Sc2c1ccc1ccccc21 [B, reference compound] | < 0.1 | highly toxic to normal nude mice | < 2 | 0.05 | 
4 | CCN1/C(=C/C=C/c2sc3ccccc3[n+]2CC)Sc2ccccc21 [A, reference compound] | 0.6 | highly toxic to normal nude mice |  |  | 
5 | CCN1C(=CC=C(Cl)C=Cc2sc3ccc4ccccc4c3[n+]2CC)Sc2ccc3ccccc3c21 [H, reference compound] | 0.1 | highly toxic to normal nude mice | 2.5 | 0.04 | 
6 | CCCN1C(=CC=CC=Cc2oc3ccccc3[n+]2CCC)Oc2ccccc21 [E, reference compound] | 6 | less toxic to normal nude mice | 12 | 0.5 | 
7 | CCn1c(=CC2=[N+](CC)CCS2)sc(=C2Sc3ccccc3N2C)c1=O [Compound 16] | 20 |  | 667 |  | IC50 (CV-1 cells; CV-1, 24 h, Table IV): 20 µg/mL; IC50 (CV-1 cells; CV-1, 24 h, Table V): 20 µg/mL; IC50 (CV-1 cells; CV-1, 24 h, Table VI): 20 µg/mL; IC50 (CV-1 cells; CV-1, 24 h, Table VII): 20 µg/mL; inhibition in vivo at 5 mg/kg [1]: 82.9%; CX-1 (IC50) (CX-1 cells; Table III, human colon carcinoma, 24 hours treatment, colony count after 7 to 10 days): 0.03 µg/mL; Selectivity (CRL 1420 cells; CV-1/CRL-1420): 285; IC50 (CRL 1420 cells; Homo sapiens, 24 h, Table VII, human pancreatic carcinoma, 24 hours treatment): 0.07 µg/mL; Selectivity (LOX cells; CV-1/LOX): 222; LOX(IC50) (LOX cells; Table V, human melanoma, 24 hours treatment): 0.09 µg/mL; Selectivity (MCF-7 cells; CV-1/MCF-7): 333; MCF-7(IC50) (MCF-7 cells; Table VI, human breast carcinoma, 24 hours treatment): 0.06 µg/mL; Selectivity (EJ cells; CV-1/EJ): 100; IC50 (EJ cells; Homo sapiens, EJ, 24 h, Table IV, human bladder carcinoma, 24 hours treatment): 0.2 µg/mL; response vs control in vivo at 5 mg/kg (human melanoma LOX): 147%
